Measurements taken from patent US6936628B2, “Oral administration of epothilones” (Bristol-Myers Squibb Company, priority 2002, dated 2005).

Key:
[1] = Water solubility (statement); format: physicochemical
Experimental: For these reasons Compound A may be formulated in an entirely aqueous excipient system for parenteral administration. To determine whether differences in the dosing vehicle may affect the antitumor activity of Compound A, a direct head-to-head comparison of the antitumor efficacy of Compound A formulated in either cremophor/ethanol/water (10:10:80, v/v/v) or sodium acetate buffer (30 mM, pH 5.0) was conducted. No formulation related effect was observed.

rabbit Purkinje fiber = assay: Rabbit Purkinje-fiber action potential model; format: cell-based; settings: 30 μM
Experimental: Human embryonic kidney (HEK293) cells stably transfected with the human ether-a-go-go related gene (HERG) cDNA were utilized in the HERG assay. Rabbit Purkinje fibres were used for the Purkinje-fibre action potential assay^7.
In a non-GLP study^7, Compound A, at concentrations of 3, 10 and 30 μM, was evaluated in an in vitro rabbit Purkinje fiber model. This model was developed to determine if a compound would affect the action-potential duration of the Purkinje fiber or other action-potential parameters. […] Based on these findings, Compound A is unlikely to provoke clinically relevant electrocardiographic effects in vivo.

Pharmacokinetics in mice = format: in vivo; settings: nude mice
Experimental: The pharmacokinetics of Compound A was evaluated in nude mice after IV (5 mg/kg) and oral (15 mg/kg) administration (n=15 mice/group). Compound A was dissolved in a mixture of cremophor:ethanol:water (10:10:80) and cremophor:ethanol:phosphate buffer, pH 8 (10:10:80) for the preparation of IV and oral doses, respectively. Plasma concentrations of Compound A were determined at 10 and 45 min, and 2, 4, and 6 hours postdose from 3 mice/time point/group. Composite plasma concentration-time profiles were constructed for pharmacokinetic analysis. […] The VSS values was 38 L/kg which is greater than total body water of about 0.7 L/kg, indicating significant extravascular distribution. The T-HALF value, both after IV and oral administration, was 3.3 h.

[2] = Single dose IV toxicokinetics in rats; format: in vivo; settings: both sexes, rat, plasma, IV 1, 5 and 7 mg/kg, across doses and sex
Experimental: The single dose IV toxicokinetics of Compound A in rats were evaluated as a part of a toxicology study. Compound A, prepared in 50 mM citrate buffer (pH 5), was given intravenously (over approximately 1-2 min period) at doses of 1, 5, and 7 mg/kg to 3 rats/gender/dose. Blood samples were collected at 3, 15, and 30 minutes, and at 1, 3, 6, 12, and 24 h after dosing. Plasma concentrations of Compound A were determined using a validated LC/MS/MS assay with a standard curve range of 2-500 ng/mL. […] Systemic exposures were reasonably similar between male and female rats. […] Furthermore, there appeared to be no differences in the toxicokinetics of Compound A between male and female rats.

[3] = Single dose pharmacokinetic study in dogs; format: in vivo, beagle dogs
Experimental: The vehicle used for both IV and oral dose was propylene glycol:ethanol:phosphate buffer (pH 7.4-8.0) (40:5:55). […] The VSS value after IV administration was 4.7 L/kg, which is greater than the reported total body water of 0.6 L/kg in dogs, indicating significant extravascular distribution of Compound A. The T-HALF of Compound A was 3.9 and 3.1 h after IV and oral administration, respectively.

[4] = system: Pat-7 human ovarian carcinoma; settings: Balb/c nu/nu, mouse, in vivo, iv
in vivo [5] = settings: male, Sprague-Dawley, rat, plasma, 2 mg/kg, rats, IA 2 mg/kg
Description: A total of eight rats were divided into four groups (three IA groups and one oral group), with two rats in each group. […] The vehicle used for the oral administration was propylene glycol:ethanol:phophate buffer, 1 M, pH 8 (58:12:30).

in vivo [6] = settings: male, Sprague-Dawley, rat, plasma, other: intraarterial (IA), 2 mg/kg
Experimental: In another pharmacokinetic study, fasted male Sprague-Dawley rats, assigned to two IA groups (2 mg/kg) and one oral (8 mg/kg) group (n=3/group), were administered a single dose of Compound A. Compound A was prepared for IA administration in two separate vehicles: vehicle 1, cremophor:ethanol:water (10:10:80), and vehicle 2, ethanol:phosphate buffer, 0.05 M, pH 7.4 (6:94). The vehicle for the oral administration was ethanol:phosphate buffer, 0.3 M, pH 8 (18:82). Samples were collected at 10, 15, 30, and 45 min, and at 1, 2, 4, 6, 8, 10, 24, and 48 hours after dosing.

in vitro = settings: human, Caco-2
[7] = Microsomal incubation, dog; settings: dog liver microsomes + NADPH, 20 μM
[8] = Microsomal incubation, mouse; settings: mouse liver microsomes + NADPH, 20 μM

C/C(=C\c1csc(CN)n1)[C@@H]1C[C@@H]2O[C@]2(C)CCC[C@H](C)[C@H](O)[C@@H](C)C(=O)C(C)(C)[C@@H](O)CC(=O)O1 (relative stereo) [Compound A, [1S-[1R*,3R*(E),7R*,10S*,11R*,12R*,16S*]]-3-[2-[2-(aminomethyl)-4-thiazolyl]-1-methylethenyl]-7,11-dihydroxy-8,8,10,12,16-pentamethyl-4,17-dioxabicyclo[14.1.0]heptadecane-5,9-dione]
water solubility [1]: highly water-soluble
decrease of Purkinje fiber APD90 (rabbit Purkinje fiber): less than 10%
Vd (Pharmacokinetics in mice; mouse, plasma, IV 5 mg/kg, read-out: VSS): 38 L/kg
bioavailability (Pharmacokinetics in mice; mouse, plasma, oral 15 mg/kg vs IV 5 mg/kg, read-out: absolute oral bioavailability): 21%
CLT (Pharmacokinetics in mice; IV 5 mg/kg): 152 mL/min/kg
T-HALF (Pharmacokinetics in mice; IV 5 mg/kg): 3.3 h
T-HALF (Pharmacokinetics in mice; oral 15 mg/kg): 3.3 h
AUC [2]: 159 to 1940 ng·h/mL
Cmax [2]: 183 to 3910 ng/mL
CLT ([3]; IV 0.5 mg/kg): about 25.7 mL/min/kg
T-HALF ([3]; IV 0.5 mg/kg): 3.9 h
Vd ([3]; male, beagle, dog, plasma, IV 0.5 mg/kg, read-out: VSS): 4.7 L/kg
bioavailability ([3]; male, beagle, dog, plasma, oral 1 mg/kg vs IV 0.5 mg/kg, read-out: mean absolute oral bioavailability): 40%
T-HALF ([3]; oral 1 mg/kg): 3.1 h
OD (optimal dose or maximum tolerated dose) [4]: 8 mg/kg
AUC (in vivo [5]; mean AUC, vehicle 1 ethanol:water (10:90)): 133 ng·h/mL
AUC (in vivo [5]; mean AUC, vehicle 2 cremophor:ethanol:water (10:10:80)): 708 ng·h/mL
AUC (in vivo [5]; pH 7.4, mean AUC, vehicle 3 propylene glycol:ethanol:phosphate buffer pH 7.4 (40:5:55)): 210 ng·h/mL
AUC (in vivo [6]): 2890 ng·h/mL
AUC (in vivo [6]; pH 7.4): 717 ng·h/mL
Papp at 200 μM (in vitro): 6 ×10⁻⁶ cm/s
rate of oxidative metabolism [7]: 0.07
rate of oxidative metabolism [8]: 0.3
